Laboratory results reported in ChEMBL document CHEMBL1201862, “PubChem BioAssay data set” (2004).
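Exposure lasted 48 hours, with cells grown in 96-well plates and compounds tested at five concentrations. At the GI50, growth is halved.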 The source made the active and inactive calls. Cut-off read from the data, not from the text of the source: active = GI50 up to about 1.1 µM and inactive = higher.

Legend:
Assay in all cases: growth of human tumour cells (NCI), 48 h
HT-29 = tested on: HT-29
NCI-H226 = tested on: NCI-H226
COLO 205 = tested on: COLO 205
SK-MEL-2 = tested on: SK-MEL-2
CCRF-CEM = tested on: CCRF-CEM
Malme-3M = tested on: Malme-3M
A498 = tested on: A498
SW-620 = tested on: SW-620
SK-MEL-28 = tested on: SK-MEL-28
OVCAR-8 = tested on: OVCAR-8
MOLT-4 = tested on: MOLT-4
SF-268 = tested on: SF-268
SNB-75 = tested on: SNB-75
DMS-114 = tested on: DMS-114
UO-31 = tested on: UO-31
M14 = tested on: M14
A549 = tested on: A549

Measured: GI50

COC(=O)C(CC(=O)Nc1ccc(C)cc1)C(=O)C(=O)Nc1ccccc1C(C)C (configuration not stated)
inactive: HT-29 > 100 µM | NCI-H226 > 100 µM | COLO 205 89.7 µM | SK-MEL-2 > 100 µM | CCRF-CEM > 100 µM | Malme-3M > 100 µM | A498 > 100 µM | SW-620 22.2 µM | SK-MEL-28 > 100 µM | OVCAR-8 > 100 µM | MOLT-4 > 100 µM | SF-268 > 100 µM | SNB-75 > 100 µM | DMS-114 > 100 µM | UO-31 > 100 µM | M14 > 100 µM | A549 > 100 µM

COc1ccc(NC(=O)C(=O)C2NC(=S)NC2=O)c(OC)c1 (configuration not stated)
inactive: HT-29 > 100 µM | NCI-H226 > 100 µM | COLO 205 > 100 µM | SK-MEL-2 > 100 µM | CCRF-CEM > 10 µM | Malme-3M > 100 µM | A498 > 100 µM | SW-620 > 100 µM | SK-MEL-28 > 100 µM | OVCAR-8 > 100 µM | MOLT-4 > 100 µM | SF-268 > 100 µM | SNB-75 > 100 µM | DMS-114 > 100 µM | UO-31 > 100 µM | M14 > 100 µM | A549 > 100 µM

C[C@]12CCCC(=O)C1C[C@H](C(=O)O)CC2 (some centres not stated)
inactive: HT-29 > 100 µM | NCI-H226 > 100 µM | COLO 205 > 100 µM | SK-MEL-2 > 100 µM | CCRF-CEM > 100 µM | Malme-3M > 100 µM | A498 > 100 µM | SW-620 > 100 µM | SK-MEL-28 > 100 µM | OVCAR-8 > 100 µM | MOLT-4 > 100 µM | SF-268 > 100 µM | SNB-75 > 100 µM | DMS-114 > 100 µM | UO-31 > 100 µM | M14 > 100 µM | A549 > 100 µM

O=[N+]([O-])c1ccc(OCCNc2cccc3ccccc23)cc1
inactive: HT-29 85.5 µM | NCI-H226 > 100 µM | COLO 205 > 100 µM | SK-MEL-2 > 100 µM | CCRF-CEM 38.2 µM | Malme-3M > 100 µM | A498 > 100 µM | SW-620 57.1 µM | SK-MEL-28 > 100 µM | OVCAR-8 65.3 µM | MOLT-4 20.3 µM | SF-268 > 100 µM | SNB-75 89.7 µM | DMS-114 52.8 µM | UO-31 92.9 µM | M14 > 100 µM | A549 60.1 µM

C[C@]12C=CC(=O)C=C1CC[C@H]1[C@@H]3C[C@@H](O)[C@](O)(C(=O)CO)[C@@]3(C)C[C@H](O)[C@@]12F [TRIAMCINOLONE]
inactive: HT-29 > 100 µM | NCI-H226 > 100 µM | COLO 205 > 100 µM | SK-MEL-2 > 100 µM | CCRF-CEM 1.4 µM | Malme-3M > 100 µM | A498 > 100 µM | SW-620 > 100 µM | SK-MEL-28 > 100 µM | OVCAR-8 > 100 µM | MOLT-4 > 100 µM | SF-268 > 100 µM | SNB-75 > 100 µM | DMS-114 > 100 µM | UO-31 > 100 µM | M14 > 100 µM | A549 > 100 µM

Cc1ccnc(NS(=O)(=O)c2ccc(NC3=CC(=O)C(=O)c4ccccc43)cc2)n1
inactive: HT-29 > 100 µM | NCI-H226 > 100 µM | COLO 205 > 100 µM | SK-MEL-2 > 100 µM | CCRF-CEM > 100 µM | Malme-3M > 100 µM | A498 > 100 µM | SW-620 > 100 µM | SK-MEL-28 > 100 µM | OVCAR-8 > 100 µM | MOLT-4 > 100 µM | SF-268 > 100 µM | SNB-75 > 100 µM | DMS-114 > 100 µM | UO-31 > 100 µM | M14 > 100 µM | A549 > 100 µM
